In patent US9617276B2, “Compounds and methods for treating AIDS and HIV infections” (priority 2009, dated 2017):
Where two headings read alike, the source gives them in different places.

Legend:
HIV-1MDR/TM = type: cell-based; settings: for EC50 (μM), HIV-1MDR/TM (SI): PHA-PBMCs, p24 Gag; for n-fold change of EC50, HIV-1MDR/TM: compared to wild-type HIV-1ERS104pre
Experimental: (§1) The susceptibility of HIV-1LAI and primary HIV-1 isolates to various drugs were determined as described previously (Koh et al. 2003 Antimicrob Agents Chemother 47:3123-9). Briefly, MT-2 cells (2×10^4/ml) were exposed to 100 50% tissue culture infectious doses (TCID50S) of HIV-1LAI, in the presence or absence of various concentrations of drugs in 96-well microculture plates and were incubated at 37° C. for 7 days. After 100 μl of the medium was removed from each well, 3-(4,5-dimetylthiazol-2-yl)-2,5-diphenyltetrazolium bromide (MTT) solution (10 μl, 7.5 mg/ml in phosphate-buffered saline) was added to each well in the plate, followed by incubation at 37° C. for 3 h. […] All assays were performed in duplicate or triplicate. To determine the susceptibility of primary HIV-1 isolates to drugs, phytohemagglutinin-activated peripheral blood mononuclear cells (PHA-PBMCs; 106/ml) were exposed to 50 TCID50S of each. The target cells were exposed to HIV-1104pre or drug-resistant HIV-1 in the presence or absence of various concentrations of drugs and were incubated for 7 days. Upon the conclusion of the culture, the amounts of p24 Gag protein in the supernatants were determined using a fully automated chemiluminescent enzyme immunoassay system (Lumipulse F; Fujirebio Inc., Tokyo, Japan) (Maeda et al. 2001 J Biol Chem 276:35194-200). To determine the drug susceptibility of certain laboratory HIV-1 strains, MT-4 cells were used as target cells. In brief, MT-4 cells (10^5/ml) were exposed to 100 TCID50S of drug-resistant HIV-1 strains in the presence or absence of various concentrations of drugs and on day 7 of culture, the supernatant was harvested and the amounts of p24 Gag protein were determined. […] All assays were performed in duplicate or triplicate.
(§2) These clinical strains contained 9 to 14 amino acid substitutions in the protease-encoding region, which have reportedly been associated with HIV-1 resistance to various PIs.
(§3) Amino acid substitutions identified in the protease-encoding region compared to the consensus type B sequence cited from the Los Alamos database include L63P in HIV-1ERS104pre; L10I, K14R, L33I, M36I, M46I, F53I, K55R, I62V, L63P, A71V, G73S, V82A, L90M, and I93L in HIV-1MDR/B; L10I, I15V, K20R, L24I, M36I, M46L, I54V, I62V, L63P, K70Q, V82A, and L89M in HIV-1MDR/C; L10I, V11I, T12E, I15V, L19I, R41K, M46L, L63P, A71T, V82A, and L90M in HIV-1MDR/G; L10I, K14R, R41K, M46L, I54V, L63P, A71V, V82A, L90M, I93L in HIV-1MDR/TM; L10I, K43T, M46L, I54V, L63P, A71V, V82A, L90M, and Q92K in HIV-1MDR/MM; L10I, L24I, I33F, E35D, M36I, N37S, M46L, I54V, R57K, I62V, L63P, A71V, G73S, and V82A in HIV-1MDR/JSL. HIV-1ERS104pre served as a source of wild-type HIV-1. EC50s were determined by using PHA-PBMs as target cells, and inhibition of p24 Gag protein production by each drug was used as an end point. Numbers in parentheses represent n-fold changes of EC50s for each isolate compared to EC50s for wild-type HIV-1ERS104pre.

HIV-1MDR/C = type: cell-based; settings: for EC50 (μM), HIV-1MDR/C (SI): PHA-PBMCs, p24 Gag; for n-fold change of EC50, HIV-1MDR/C: compared to wild-type HIV-1ERS104pre
Experimental: as §1, §2, §3

HIV-1MDR/G = type: cell-based; settings: for EC50 (μM), HIV-1MDR/G (SI): PHA-PBMCs, p24 Gag; for n-fold change of EC50, HIV-1MDR/G: compared to wild-type HIV-1ERS104pre
Experimental: as §1, §2, §3

HIV-1MDR/B = type: cell-based; settings: for EC50 (μM), HIV-1MDR/B (SI): PHA-PBMCs, p24 Gag; for n-fold change of EC50, HIV-1MDR/B: compared to wild-type HIV-1ERS104pre
Experimental: as §1, §2, §3

HIV-1MDR/MM = assay: microbe, parasite or virus in culture; type: cell-based; settings: for EC50: Human immunodeficiency virus 1, read-out: EC50 (μM), HIV-1MDR/MM (NSI); for n-fold change of EC50, HIV-1MDR/MM: compared to wild-type HIV-1ERS104pre
Experimental: as §1, §2, §3

HIV-1MDR/JSL = assay: microbe, parasite or virus in culture; type: cell-based; settings: for EC50: Human immunodeficiency virus 1, read-out: EC50 (μM), HIV-1MDR/JSL (NSI); for n-fold change of EC50, HIV-1MDR/JSL: compared to wild-type HIV-1ERS104pre
Experimental: as §1, §2, §3

[1] = system: multidrug-resistant clinical HIV-1 isolates (HIV-1MDR); assay: microbe, parasite or virus in culture; type: cell-based; settings: Human immunodeficiency virus 1, read-out: EC50 with multidrug-resistant clinical HIV-1 isolates (mostly)
Experimental: as §1, §2, §3

[2] = system: HIV-1ERS104pre (wild-type); assay: p24 Gag inhibition in PHA-PBMCs, HIV-1ERS104pre; type: cell-based; settings: mean ± 1 SD
Experimental: as §1, §2, §3

HIV-1NL4-3 = assay: p24 Gag inhibition in MT-4 cells, HIV-1NL4-3; type: cell-based
Experimental: All assays were performed in duplicate or triplicate. […] All assays were performed in duplicate or triplicate.

HIV-1APV5μM = assay: microbe, parasite or virus in culture; type: cell-based; settings: for EC50: Human immunodeficiency virus 1, MT4, read-out: EC50 (μM), HIV-1APV5 μM
Experimental: as §1
(§4) Numbers in parentheses represent n-fold changes in EC50s for each isolate compared to the EC50s for wild-type HIV-1NL4-3.

HIV-1AZV5μM = assay: microbe, parasite or virus in culture; type: cell-based; settings: for EC50: Human immunodeficiency virus 1, MT4, read-out: EC50 (μM), HIV-1AZV5 μM
Experimental: as §1, §4

HIV-1LPV5μM = assay: microbe, parasite or virus in culture; type: cell-based; settings: for EC50: Human immunodeficiency virus 1, MT4, read-out: EC50 (μM), HIV-1LPV5 μM
Experimental: as §1, §4

HIV-1NFV5μM = assay: microbe, parasite or virus in culture; type: cell-based; settings: for EC50: Human immunodeficiency virus 1, MT4, read-out: EC50 (μM), HIV-1NPV5 μM
Experimental: as §1, §4

HIV-1SQV5μM = assay: microbe, parasite or virus in culture; type: cell-based; settings: for EC50: Human immunodeficiency virus 1, MT4, read-out: EC50 (μM), HIV-1SQV5 μM
Experimental: as §1, §4

HIV-1396-1μM = assay: microbe, parasite or virus in culture; type: cell-based, HIV-1; settings: Human immunodeficiency virus 1, MT4, read-out: EC50 (μM), HIV-1396-1 μM
Experimental: (§5) Briefly, MT-2 cells (2×10^4/ml) were exposed to 100 50% tissue culture infectious doses (TCID50S) of HIV-1LAI, in the presence or absence of various concentrations of drugs in 96-well microculture plates and were incubated at 37° C. for 7 days. After 100 μl of the medium was removed from each well, 3-(4,5-dimetylthiazol-2-yl)-2,5-diphenyltetrazolium bromide (MTT) solution (10 μl, 7.5 mg/ml in phosphate-buffered saline) was added to each well in the plate, followed by incubation at 37° C. for 3 h. […] All assays were performed in duplicate or triplicate. […] To determine the drug susceptibility of certain laboratory HIV-1 strains, MT-4 cells were used as target cells. In brief, MT-4 cells (10^5/ml) were exposed to 100 TCID50S of drug-resistant HIV-1 strains in the presence or absence of various concentrations of drugs and on day 7 of culture, the supernatant was harvested and the amounts of p24 Gag protein were determined. […] All assays were performed in duplicate or triplicate.
as §4

HIV-1246-1μM = assay: microbe, parasite or virus in culture; type: cell-based, HIV-1; settings: Human immunodeficiency virus 1, MT4, read-out: EC50 (μM), HIV-1246-1 μM
Experimental: as §5, §4

HIV-1216-P50 = assay: microbe, parasite or virus in culture; type: cell-based, HIV-1; settings: Human immunodeficiency virus 1, MT4, read-out: EC50 (μM), HIV-1216-p50
Experimental: as §5, §4

[3] = compared to wild-type HIV-1NL4-3

## CC(C)(C)NC(=O)[C@@H]1CN(Cc2cccnc2)CCN1C[C@@H](O)C[C@@H](Cc1ccccc1)C(=O)N[C@H]1c2ccccc2C[C@H]1O [IDV, Indinavir]
HIV-1MDR/TM
  EC50 (μM), HIV-1MDR/TM (SI): > 1 µM
  n-fold change of EC50, HIV-1MDR/TM: > 23
HIV-1MDR/C
  EC50 (μM), HIV-1MDR/C (SI): > 1 µM
  n-fold change of EC50, HIV-1MDR/C: > 23
HIV-1MDR/G
  EC50 (μM), HIV-1MDR/G (SI): 0.34 ± 0.14 µM
  n-fold change of EC50, HIV-1MDR/G: (5)
HIV-1MDR/B
  EC50 (μM), HIV-1MDR/B (SI): > 1 µM
  n-fold change of EC50, HIV-1MDR/B: > 23
HIV-1MDR/MM
  EC50: > 1 µM
  n-fold change of EC50, HIV-1MDR/MM: > 23
HIV-1MDR/JSL
  EC50: > 1 µM
  n-fold change of EC50, HIV-1MDR/JSL: > 23
[1]
  EC50: > 1000 nM
[2]
  EC50 (μM), HIV-1ERS104pre (wild-type SI): 0.043 ± 0.004 µM

## Cc1c(O)cccc1C(=O)N[C@@H](CSc1ccccc1)[C@H](O)CN1C[C@H]2CCCC[C@H]2C[C@H]1C(=O)NC(C)(C)C [NFV, Nelfinavir]
HIV-1NL4-3; Human immunodeficiency virus 1, MT4, Table 9, mean ± 1 SD, read-out: EC50 (μM), HIV-1NL4-3
  EC50: 0.04 ± 0.007 µM
HIV-1APV5μM
  EC50: 0.3 ± 0.03 µM
HIV-1AZV5μM
  EC50: > 1 µM
HIV-1LPV5μM
  EC50: 0.32 ± 0.12 µM
HIV-1NFV5μM
  EC50: > 1 µM
HIV-1SQV5μM
  EC50: 0.51 ± 0.081 µM
HIV-1396-1μM
  EC50: 0.22 ± 0.02 µM
HIV-1246-1μM
  EC50: 0.29 ± 0.006 µM
HIV-1216-P50
  EC50: 0.13 ± 0.04 µM

## CC(C)(C)NC(=O)[C@@H]1C[C@@H]2CCCC[C@@H]2CN1C[C@@H](O)[C@H](Cc1ccccc1)NC(=O)[C@H](CC(N)=O)NC(=O)c1ccc2ccccc2n1 [SQV, Saquinavir]
HIV-1NL4-3; Human immunodeficiency virus 1, MT4, read-out: EC50 (μM), HIV-1NL4-3, Table 7, mean ± 1 SD
  EC50: 0.005 ± 0.002 µM
HIV-1MDR/TM
  EC50 (μM), HIV-1MDR/TM (SI): 0.26 ± 0.04 µM
  n-fold change of EC50, HIV-1MDR/TM: (33)
HIV-1MDR/C
  EC50 (μM), HIV-1MDR/C (SI): 0.032 ± 0.002 µM
  n-fold change of EC50, HIV-1MDR/C: (11)
HIV-1MDR/G
  EC50 (μM), HIV-1MDR/G (SI): 0.030 ± 0.002 µM
  n-fold change of EC50, HIV-1MDR/G: (4)
HIV-1MDR/B
  EC50 (μM), HIV-1MDR/B (SI): 0.27 ± 0.073 µM
  n-fold change of EC50, HIV-1MDR/B: (34)
HIV-1APV5μM
  EC50: 0.026 ± 0.01 µM
HIV-1APV5μM; [3]
  n-fold change in EC50, HIV-1APV5 μM: (5)
HIV-1AZV5μM
  EC50: 0.031 ± 0.005 µM
HIV-1AZV5μM; [3]
  n-fold change in EC50, HIV-1AZV5 μM: (6)
HIV-1LPV5μM
  EC50: 0.028 ± 0.007 µM
HIV-1LPV5μM; [3]
  n-fold change in EC50, HIV-1LPV5 μM: (6)
HIV-1NFV5μM
  EC50: 0.003 ± 0.002 µM
HIV-1NFV5μM; [3]
  n-fold change in EC50, HIV-1NPV5 μM: (1)
HIV-1SQV5μM
  EC50: > 1 µM
HIV-1SQV5μM; [3]
  n-fold change in EC50, HIV-1SQV5 μM: > 200
HIV-1MDR/MM
  EC50: 0.19 ± 0.05 µM
  n-fold change of EC50, HIV-1MDR/MM: (24)
HIV-1MDR/JSL
  EC50: 0.3 ± 0.02 µM
  n-fold change of EC50, HIV-1MDR/JSL: (37)
[2]
  EC50 (μM), HIV-1ERS104pre (wild-type SI): 0.008 ± 0.005 µM
